Earlier results on one molecule are cited in patent US9750700B2 (Natco Pharma Limited, priority 2011, dated 2017).

The conditions of the data set: crystalline form of Imatinib mesylate.

For the molecule `CS(=O)(=O)O.Cc1ccc(NC(=O)c2ccc(CN3CCN(C)CC3)cc2)cc1Nc1nccc(-c2cccnc2)n1` [α-crystalline form], the hygroscopicity entry is reported as “hygroscopic”.
